Entries after “also recorded” stand apart in the source; their conditions may differ. Read-outs that look alike come from different tables or passages of the source.
Experiments:
[1] = Plasma pharmacokinetics of FGF401 (noncompartmental) and food effect; type: in vivo, human
Experimental: Pharmacokinetic endpoints included plasma concentrations and PK parameters of FGF401 and spartalizumab. Pharmacokinetic parameters were determined with noncompartmental method(s) using Phoenix WinNonlin version 6.4 or above (Pharsight Corporation, Mountain View, Califormia, USA). Immunogenicity of spartalizumab was assessed through presence and/or concentration of anti-drug (spartalizumab) antibodies (ADA). Food effect on FGF401 exposure was evaluated through plasma concentration of FGF401 and relevant PK parameters when dosing under fed condition. Safety of the food effect was assessed through incidence and severity of AEs and serious AEs (SAEs), including changes in laboratory values, vital signs, and ECGs when dosing under fed condition. The PK analyses and summary statistics were based on pharmacokinetic analysis set. Individual as well as mean concentration-time profiles were constructed using concentration data for spartalizumab and FGF401. Descriptive statistics for PK parameters included mean, standard deviation, coefficient of variation (CV%) mean, geometric mean, median, minimum, and maximum, with only the latter 3 for time to reach maximum concentration (Tmax) and additional 90% CI for accumulation ratio (Racc). Zero concentrations were not included in the geometric mean calculations. Missing concentrations or PK parameter values were not imputed.

FGF19-FGFR4 signaling = assay: Blood-based pharmacodynamic biomarkers (C4, total bile acids, FGF19, cholesterol); type: in vivo, human
Experimental: An immunohistochemistry (IHC) assay to detect FGF19 was used retrospectively on remnant samples and the association of FGF19 expression levels with best change in sum of diameters (SOD) for RECIST v1.1 in the single-agent was evaluated. […] FGF19 was quantified using a capture-ELISA assay from R&D System, Cat. nr. DF1900, with a LLOQ of 27.2 pg/mL and ULOQ of 1096.3 pg/mL. C4: 7α-Hydroxy-4-cholesten-3-one was determined using an LC-MS/MS method. The concentration of total bile acids were measured using the colorimetric diazyme’s enzymatic total bile acids assay.

phospho-FGFR4 = details: preclinical; read-out: in vivo phospho-FGFR4 IC90; cited from earlier work
[2] = test system: HCC and gastric cancer cell lines expressing FGFR4, KLB and FGF19; details: excellent selectivity over non-sensitive tumor models; cited from earlier work
[3] = test system: cell-line derived HCC xenografts and patient-derived HCC xenografts; details: dose-dependent manner; cited from earlier work
[4] = human, plasma, oral, 80 mg, Cycle 1 day 8, 80 mg Fasted, n=6, geometric mean (CV%)
[5] = human, plasma, oral, 80 mg, Cycle 1 day 8, 80 mg Fed, n=4, geometric mean (CV%)
[6] = human, plasma, oral, 150 mg, Cycle 1 day 8, 150 mg Fasted, n=6, geometric mean (CV%)
[7] = low fat meals, 80 mg and 120 mg
[8] = most patients across the FGF401 dose levels

COCCNc1cc(NC(=O)N2CCCc3cc(CN4CCN(C)CC4=O)c(C=O)nc32)ncc1C#N [FGF401, roblitinib]
dose proportionality of exposures (AUC and Cmax) ([1]; 50 to 150 mg, fasted and fasted-fed combined): increased slightly under dose proportion
Racc ([1]; C1D8 and C2D1 versus C1D1): around 1
Racc ([1]; Cycle 1 day 8, 50 mg Fasted, n=6, geometric mean (CV%)): 0.929 (12.1)
Racc ([1]; Cycle 1 day 8, 80 mg Fasted, n=5, geometric mean (CV%)): 0.97 (14.3)
Racc ([1]; Cycle 1 day 8, 80 mg Fed, n=4, geometric mean (CV%)): 1.04 (18.6)
Racc ([1]; Cycle 1 day 8, 120 mg Fasted, n=24, geometric mean (CV%)): 1.03 (26.2)
Racc ([1]; Cycle 1 day 8, 120 mg Fed, n=15, geometric mean (CV%)): 0.95 (22.5)
Racc ([1]; Cycle 1 day 8, 150 mg Fasted, n=6, geometric mean (CV%)): 0.982 (33.3)
food effect ([1]; dosed with low-fat meals, 80 mg and 120 mg): no food effect
mean trough concentration at steady state (24 h post-dose) versus phospho-FGFR4 IC90 ([1]; even at 50 mg qd): approximately above this IC90
AUC(0-inf) ([1]; human, plasma, oral, 50 mg, Cycle 1 day 8, 50 mg Fasted, n=6, geometric mean (CV%)): 3650 ng·h/mL
half-life ([1]; human, plasma, oral, 50 mg, Cycle 1 day 8, 50 mg Fasted, n=6, geometric mean (CV%), read-out: T1/2 (converted)): 6.57 h
Cmax ([1]; human, plasma, oral, 50 mg, Cycle 1 day 8, 50 mg Fasted, n=7, geometric mean (CV%)): 663 ng/mL
AUC(0-t) ([1]; human, plasma, oral, 50 mg, Cycle 1 day 8, 50 mg Fasted, n=7, geometric mean (CV%), read-out: AUC0-24h): 3650 ng·h/mL
AUC(0-t) ([1]; human, plasma, oral, 50 mg, Cycle 1 day 8, 50 mg Fasted, n=7, geometric mean (CV%), read-out: AUClast): 3460 ng·h/mL
Tmax ([1]; human, plasma, oral, 50 mg, Cycle 1 day 8, 50 mg Fasted, n=7, median [min, max], read-out: Tmax): 1 h
AUC(0-inf) [1, 4]: 5130 ng·h/mL
Cmax [1, 4]: 838 ng/mL
AUC(0-t) ([1]; human, plasma, oral, 80 mg, Cycle 1 day 8, 80 mg Fasted, n=6, geometric mean (CV%), read-out: AUC0-24h): 4850 ng·h/mL
AUC(0-t) ([1]; human, plasma, oral, 80 mg, Cycle 1 day 8, 80 mg Fasted, n=6, geometric mean (CV%), read-out: AUClast): 4840 ng·h/mL
half-life ([1]; human, plasma, oral, 80 mg, Cycle 1 day 8, 80 mg Fasted, n=6, geometric mean (CV%), read-out: T1/2 (converted)): 6.08 h
Tmax ([1]; human, plasma, oral, 80 mg, Cycle 1 day 8, 80 mg Fasted, n=6, median [min, max], read-out: Tmax): 1.01 h
AUC(0-inf) [1, 5]: 5550 ng·h/mL
Cmax [1, 5]: 704 ng/mL
AUC(0-t) ([1]; human, plasma, oral, 80 mg, Cycle 1 day 8, 80 mg Fed, n=4, geometric mean (CV%), read-out: AUC0-24h): 5290 ng·h/mL
AUC(0-t) ([1]; human, plasma, oral, 80 mg, Cycle 1 day 8, 80 mg Fed, n=4, geometric mean (CV%), read-out: AUClast): 5280 ng·h/mL
half-life ([1]; human, plasma, oral, 80 mg, Cycle 1 day 8, 80 mg Fed, n=4, geometric mean (CV%), read-out: T1/2 (converted)): 5.58 h
Tmax ([1]; human, plasma, oral, 80 mg, Cycle 1 day 8, 80 mg Fed, n=4, median [min, max], read-out: Tmax): 2.5 h
AUC(0-inf) ([1]; human, plasma, oral, 120 mg, Cycle 1 day 8, 120 mg Fasted, n=18, geometric mean (CV%)): 7590 ng·h/mL
half-life ([1]; human, plasma, oral, 120 mg, Cycle 1 day 8, 120 mg Fasted, n=18, geometric mean (CV%), read-out: T1/2 (converted)): 5.43 h
Cmax ([1]; human, plasma, oral, 120 mg, Cycle 1 day 8, 120 mg Fasted, n=24, geometric mean (CV%)): 1120 ng/mL
AUC(0-t) ([1]; human, plasma, oral, 120 mg, Cycle 1 day 8, 120 mg Fasted, n=24, geometric mean (CV%), read-out: AUC0-24h): 6970 ng·h/mL
AUC(0-t) ([1]; human, plasma, oral, 120 mg, Cycle 1 day 8, 120 mg Fasted, n=24, geometric mean (CV%), read-out: AUClast): 6480 ng·h/mL
Tmax ([1]; human, plasma, oral, 120 mg, Cycle 1 day 8, 120 mg Fasted, n=24, median [min, max], read-out: Tmax): 1.04 h
AUC(0-inf) ([1]; human, plasma, oral, 120 mg, Cycle 1 day 8, 120 mg Fed, n=15, geometric mean (CV%)): 7980 ng·h/mL
half-life ([1]; human, plasma, oral, 120 mg, Cycle 1 day 8, 120 mg Fed, n=15, geometric mean (CV%), read-out: T1/2 (converted)): 5.58 h
AUC(0-t) ([1]; human, plasma, oral, 120 mg, Cycle 1 day 8, 120 mg Fed, n=16, geometric mean (CV%), read-out: AUC0-24h): 7330 ng·h/mL
Cmax ([1]; human, plasma, oral, 120 mg, Cycle 1 day 8, 120 mg Fed, n=18, geometric mean (CV%)): 1060 ng/mL
AUC(0-t) ([1]; human, plasma, oral, 120 mg, Cycle 1 day 8, 120 mg Fed, n=18, geometric mean (CV%), read-out: AUClast): 7640 ng·h/mL
Tmax ([1]; human, plasma, oral, 120 mg, Cycle 1 day 8, 120 mg Fed, n=18, median [min, max], read-out: Tmax): 3.01 h
AUC(0-inf) [1, 6]: 7850 ng·h/mL
Cmax [1, 6]: 1070 ng/mL
AUC(0-t) ([1]; human, plasma, oral, 150 mg, Cycle 1 day 8, 150 mg Fasted, n=6, geometric mean (CV%), read-out: AUC0-24h): 7510 ng·h/mL
AUC(0-t) ([1]; human, plasma, oral, 150 mg, Cycle 1 day 8, 150 mg Fasted, n=6, geometric mean (CV%), read-out: AUClast): 7550 ng·h/mL
half-life ([1]; human, plasma, oral, 150 mg, Cycle 1 day 8, 150 mg Fasted, n=6, geometric mean (CV%), read-out: T1/2 (converted)): 5.24 h
Tmax ([1]; human, plasma, oral, 150 mg, Cycle 1 day 8, 150 mg Fasted, n=6, median [min, max], read-out: Tmax): 2.42 h
Tmax ([1]; human, plasma, oral, cycle 1 day 1, read-out: median Tmax across phase 1 treatment groups): 1 to 2.98 h
Tmax ([1]; human, plasma, oral, cycle 1 day 8, read-out: median Tmax across phase 1 treatment groups): 1 to 3.01 h
Tmax ([1]; human, plasma, oral, cycle 2 day 1, read-out: median Tmax across phase 1 treatment groups): 1.01 to 3.02 h
half-life ([1]; human, plasma, oral, over all treatments and during all periods, read-out: terminal half-life (T1/2)): 4.91 to 6.57 h
AUC ([1]; human, plasma, oral, 120 mg fasted, C1D8, geometric mean, CV 38.7%, read-out: AUCtau at steady state): 6970 ng·h/mL
overall interpatient variability of drug exposure ([1]; in vivo): moderate
food effect on Tmax [1, 7]: slightly delayed Tmax
food effect on half-life [1, 7]: no effect on half-life
drug accumulation following repeated dosing ([1]; qd dosing): no drug accumulation
dose-response analyses with the pharmacodynamic biomarkers (FGF19-FGFR4 signaling; all doses tested): did not identify any associations; also recorded: without a clear dose response
change in C4 level (FGF19-FGFR4 signaling; [8]): Increase; also recorded: treatment-induced elevation
change in total bile acid level (FGF19-FGFR4 signaling; [8]): Increase; also recorded: treatment-induced elevation
change in circulating FGF19 (FGF19-FGFR4 signaling; single-agent arm): Increase
change in total cholesterol (FGF19-FGFR4 signaling; single-agent arm): decrease
IC90 (phospho-FGFR4): 52.1 nM
growth of cell lines [2]: inhibits growth
tumor response in xenografts [3]: robustly induces regression/stasis

From publication PMC9161616, “A first-in-human phase 1/2 study of FGF401 and combination of FGF401 with spartalizumab in patients with hepatocellular carcinoma or biomarker-selected solid tumors” (Journal of Experimental & Clinical Cancer Research : CR, 2022)
